For assay [1], the target named is T1, Stromelysin-1 (Homo sapiens, UniProt P08254). Put plainly: Inhibition of human recombinant matrix metalloprotease-3 (Stromelysin) at 100 uM.
Target sequence in this assay (P08254 whole entry): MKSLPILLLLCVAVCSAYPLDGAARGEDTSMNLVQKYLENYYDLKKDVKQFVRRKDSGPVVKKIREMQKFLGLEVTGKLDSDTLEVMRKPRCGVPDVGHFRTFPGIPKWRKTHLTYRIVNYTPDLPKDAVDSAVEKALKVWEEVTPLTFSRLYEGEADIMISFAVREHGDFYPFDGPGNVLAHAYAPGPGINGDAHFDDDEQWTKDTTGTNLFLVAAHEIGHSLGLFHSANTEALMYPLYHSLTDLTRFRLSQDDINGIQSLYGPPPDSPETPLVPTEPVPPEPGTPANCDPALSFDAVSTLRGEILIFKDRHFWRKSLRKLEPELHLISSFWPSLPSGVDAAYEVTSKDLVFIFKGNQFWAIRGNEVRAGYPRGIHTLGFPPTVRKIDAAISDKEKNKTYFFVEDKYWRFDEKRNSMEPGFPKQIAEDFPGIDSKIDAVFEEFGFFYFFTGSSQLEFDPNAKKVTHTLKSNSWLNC
Assay [2] has as its target T1, Stromelysin-1. Description: (§1) Inhibition of human recombinant matrix metalloprotease-3 (Stromelysin) at 10 uM.
Target sequence in this assay (P08254 100-477 limits assumed): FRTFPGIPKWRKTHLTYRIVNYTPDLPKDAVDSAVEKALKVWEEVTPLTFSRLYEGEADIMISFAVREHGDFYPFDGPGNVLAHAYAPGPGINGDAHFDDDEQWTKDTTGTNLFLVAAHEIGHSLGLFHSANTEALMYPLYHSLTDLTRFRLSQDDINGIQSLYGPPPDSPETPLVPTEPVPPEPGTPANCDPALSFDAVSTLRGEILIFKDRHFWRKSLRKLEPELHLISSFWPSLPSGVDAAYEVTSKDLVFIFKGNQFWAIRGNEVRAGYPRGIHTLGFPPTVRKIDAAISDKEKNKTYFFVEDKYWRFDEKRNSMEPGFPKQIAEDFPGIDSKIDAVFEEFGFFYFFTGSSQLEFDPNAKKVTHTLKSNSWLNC
Assay [3] has as its target Matrix metalloproteinase-9 (Homo sapiens) (UniProt P14780). Put plainly: Inhibition of human recombinant 92 kDa gelatinase MMP-9 at 10 uM.
Assay [4] deals with T2, Interstitial collagenase (Homo sapiens) (UniProt P03956).
T2 sequence (whole entry): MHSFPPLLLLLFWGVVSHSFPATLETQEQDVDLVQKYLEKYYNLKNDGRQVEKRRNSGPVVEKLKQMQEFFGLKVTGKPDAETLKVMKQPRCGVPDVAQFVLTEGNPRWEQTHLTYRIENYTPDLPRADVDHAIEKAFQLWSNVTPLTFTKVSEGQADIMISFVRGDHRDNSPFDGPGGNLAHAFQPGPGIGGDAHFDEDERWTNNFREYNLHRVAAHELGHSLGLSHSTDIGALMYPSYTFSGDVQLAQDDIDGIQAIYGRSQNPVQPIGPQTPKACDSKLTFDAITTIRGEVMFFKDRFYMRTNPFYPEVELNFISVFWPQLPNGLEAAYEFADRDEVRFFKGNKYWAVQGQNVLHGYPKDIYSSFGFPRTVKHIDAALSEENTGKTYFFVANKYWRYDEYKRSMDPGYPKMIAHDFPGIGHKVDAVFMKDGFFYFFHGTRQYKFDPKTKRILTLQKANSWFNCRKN
Description: Inhibition of human recombinant interstitial collagenase MMP-1 at 10 uM.

Assay [5] deals with T1, Stromelysin-1. The assay is described as §1. This is another data set of the same source.
Target sequence in this assay (P08254 whole entry): as the sequence (P08254 whole entry) above

Chain of Matrix metalloproteinase-9 (Homo sapiens) (P14780 whole entry): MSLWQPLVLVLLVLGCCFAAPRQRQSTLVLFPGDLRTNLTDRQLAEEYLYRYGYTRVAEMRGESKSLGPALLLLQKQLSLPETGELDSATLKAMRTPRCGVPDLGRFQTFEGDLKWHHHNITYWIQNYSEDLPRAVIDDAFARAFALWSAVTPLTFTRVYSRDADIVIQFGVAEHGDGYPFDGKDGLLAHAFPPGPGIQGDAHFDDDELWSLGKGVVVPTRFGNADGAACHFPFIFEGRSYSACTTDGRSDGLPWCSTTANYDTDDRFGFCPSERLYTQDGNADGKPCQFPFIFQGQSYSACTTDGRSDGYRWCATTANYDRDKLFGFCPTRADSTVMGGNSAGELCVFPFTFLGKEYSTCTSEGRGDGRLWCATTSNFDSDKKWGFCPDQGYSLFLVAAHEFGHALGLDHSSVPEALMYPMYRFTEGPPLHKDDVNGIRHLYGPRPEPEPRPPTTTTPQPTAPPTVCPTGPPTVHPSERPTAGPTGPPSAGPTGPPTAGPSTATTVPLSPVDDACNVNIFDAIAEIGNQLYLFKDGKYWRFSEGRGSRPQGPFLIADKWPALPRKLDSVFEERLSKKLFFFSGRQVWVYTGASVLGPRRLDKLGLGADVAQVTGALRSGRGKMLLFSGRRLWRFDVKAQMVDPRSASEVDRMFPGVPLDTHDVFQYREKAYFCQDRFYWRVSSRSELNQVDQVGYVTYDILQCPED

A word on the IC50: it is the concentration that inhibits the measured activity by half. A word on the inhibition: it is how much of the control response was suppressed. On to `CNC(=O)[C@H](Cc1c[nH]c2ccccc12)NC(=O)[C@@H](CC(=O)NO)CC(C)C` [ILOMASTAT], for which the IC50 in assay [1] is 28 nM. The inhibition in assay [2], in assay [3] and in assay [4] was 100% each time.

On to `COc1cc2c(cc1SC(C)=O)O[C@@H](C[C@H](c1ccc3c(c1)OCO3)C(C)OC(C)=O)C2` (stereo not given in full), for which the figures for the inhibition in assay [2], in assay [3] and in assay [4] were 58%, 8% and 23%, respectively.

For `COC1=C[C@]23C[C@H](C[C@H](c4ccc5c(c4)OCO5)[C@H]2C)OC3=CC1=S`, the inhibition in assay [2] came out at 42%; in assay [3], 0%; in assay [4], 0%.

Regarding `COC1=C[C@]23C[C@H](C[C@H](c4ccc5c(c4)OCO5)[C@H]2C)OC3=CC1=O` [FUTOENONE], the inhibition is 35% in assay [2], 0% in assay [3] and 16% in assay [4]. For the same compound, the IC50 in assay [5] was below 1000 nM.

As for `COc1cc2c(cc1S)O[C@@H](C[C@H](c1ccc3c(c1)OCO3)C(C)O)C2` (stereo not given in full), the inhibition in assay [2] amounted to 98%; in assay [3], 44%; in assay [4], 75%. In addition, the IC50 in assay [5] came to 600 nM.

Turning to `COC1=C[C@]23C[C@H](C[C@H](c4cc5c(cc4Br)OCO5)[C@H]2C)OC3=C(Br)C1=O`, the inhibition in assay [2] amounted to 38%; in assay [3], 0%; in assay [4] it was 0%.

In the case of `C=CCc1c(O)c(OC)cc2c1O[C@@H](C[C@H](c1ccc3c(c1)OCO3)C(C)O)C2` (stereo not given in full), the figures for the inhibition in assay [2], in assay [3] and in assay [4] were 36%, 0% and 0%, respectively.

With `COC1=C[C@]23C[C@H](C[C@H](c4ccc5c(c4)OCO5)[C@H]2C)OC3=C(Br)C1=O`, the inhibition in assay [2] was 38%; in assay [3] it was 22%; in assay [4] it was 0%.

As for `COc1cc2c(cc1O)O[C@@H](C[C@H](c1ccc3c(c1)OCO3)C(C)O)C2` (stereo not given in full), the figures for the inhibition in assay [2], in assay [3] and in assay [4] were 34%, 0% and 0%, respectively.

Source of the values: ChEMBL document CHEMBL1128777, “Inhibition of metalloproteinase by futoenone derivatives” (Bioorg Med Chem Lett, 1995).
